Assay results from US20030040095A1, “Method for the production of pharmaceutically active recombinant proteins” (priority 2001, published 2003).

Key:
Assay type in all cases: cell-based
[1] = test system: recombinant CHO cell line; assay: tc-uPA activity in culture of recombinant CHO cells, chromogenic assay (Pefachrome UK); details: for Activity of tc-uPA: 1 L Spinner-flask culture, 37° C., 5 days; for Activity on the chromogenic substrate: average of four fermentations
Experimental: (§1) At first, the optimal conditions related to butyrate concentration and temperature in a laboratory scale were determined. Preliminary experiments aimed at optimizing the Na-butyrate concentration were performed in a 1 L culture of the recombinant CHO cell line (1×10^6 cells/ml), in order to achieve the best tc-uPA (HMW and LMW) production and the higher cell viability after 5 days of cultivation in spinner-flasks.
(§2) In table 1 are reported the cell viability and the uPA yield after 5 days cultivation in 1 L Spinner-flask culture at 37° C. and at different Na-butyrate concentrations. uPA activity was followed by a chromogenic assay using the Pefachrome® UK (54-46) (Pentapharm, LTD, Basel, Switzerland) as chromogenic substrate, according to the manufacturer's instructions; the cell viability was followed every day and measured microscopically after Trypan blue dye-exclusion method, as described in Doyle et al. A, Griffiths, J B and Newell, D G (Eds.) (1994), in “Cell & Tissue Culture: Laboratory Procedures”. John Wiley & Sons. New York.
(§3) A second set of experiments was performed at 1.2 mM butyrate, in a 5-days fermentation to determine the optimal temperature in a 2 L culture (1.5-2×10^6 cells/ml) of the recombinant CHO cell line in bioreactor.
When the cellular density reached values of about 2×10^6 living cells/ml, the cells were separated from the exhausted medium by tangential filtration (or centrifugation). Cells were then resuspended in the bioreactor in the same original volume of fresh medium CHOMaster® with the addition of sodium butyrate to achieve a final concentration of 1.2 mM.
The production of active u-PA (tc-UPA HMW and LMW) was monitored by a chromogenic test on a specific substrate, Pefachrome® UK. A progressive increase of the activity was observed up to maximal values as high as 7000 IU/ml, achieved after 4-5 days of fermentation. At this point the cells were harvested and subsequently discarded and the exhausted culture medium, containing tc-uPA, was further processed for purification.

[2] = test system: recombinant CHO cell line; assay: Cell viability of recombinant CHO culture, Trypan blue dye-exclusion
Experimental: as §1, §2, §3

[3] = test system: recombinant CHO cell line; assay: tc-uPA activity in culture of recombinant CHO cells, chromogenic assay (Pefachrome UK); details: 1.2 mM butyrate, 32° C., after 12 days, 2 L bioreactor
[4] = test system: recombinant CHO cell line; assay: Cell viability of recombinant CHO culture, Trypan blue dye-exclusion; details: 1.2 mM butyrate, 32° C., after 12 days, 2 L bioreactor

## CCCC(=O)[O-].[Na+] [Na-Butyrate, sodium butyrate]
[1]; 0.6 mM Na-Butyrate
  Activity of tc-uPA: 526 IU/ml
[1]; 1.2 mM Na-Butyrate
  Activity of tc-uPA: 959 IU/ml
[1]; 1.2 mM Na-Butyrate, 32° C., 2 L bioreactor
  Activity of tc-uPA (5 days cultivation): 800 IU/ml
[1]; 1.2 mM Na-Butyrate, 34° C., 2 L bioreactor
  Activity of tc-uPA (5 days cultivation): 5043 IU/ml
[1]; 1.2 mM Na-Butyrate, 37° C. (control), 2 L bioreactor
  Activity of tc-uPA (5 days cultivation): 1830 IU/ml
[1]; 1.2 mM sodium butyrate, 34° C., after 4-5 days of fermentation, 2 L bioreactor
  maximal activity on Pefachrome UK: ≤ 7000 IU/ml
[1]; 2.5 mM Na-Butyrate
  Activity of tc-uPA: 361 IU/ml
[1]; 1 day after addition of 1.2 mM Na-butyrate, 34° C., 2 L bioreactor
  Activity on the chromogenic substrate: 155 ± 23%
[1]; 2 days after addition of 1.2 mM Na-butyrate, 34° C., 2 L bioreactor
  Activity on the chromogenic substrate: 662 ± 32%
[1]; 3 days after addition of 1.2 mM Na-butyrate, 34° C., 2 L bioreactor
  Activity on the chromogenic substrate: 1995 ± 13%
[1]; 4 days after addition of 1.2 mM Na-butyrate, 34° C., 2 L bioreactor
  Activity on the chromogenic substrate: 3170 ± 23%
[1]; 5 days after addition of 1.2 mM Na-butyrate, 34° C., 2 L bioreactor
  Activity on the chromogenic substrate: 5043 ± 13%
[2]; 0.6 mM Na-Butyrate, 1 L Spinner-flask culture, 37° C., 5 days
  Cell viability: 83%
[2]; 1.2 mM Na-Butyrate, 1 L Spinner-flask culture, 37° C., 5 days
  Cell viability: 76%
[2]; 1.2 mM Na-Butyrate, 32° C., 5 days, 2 L bioreactor
  Cell viability: 84%
[2]; 1.2 mM Na-Butyrate, 34° C., 5 days, 2 L bioreactor
  Cell viability: 67%
[2]; 1.2 mM Na-Butyrate, 37° C. (control), 5 days, 2 L bioreactor
  Cell viability: 53%
[2]; 2.5 mM Na-Butyrate, 1 L Spinner-flask culture, 37° C., 5 days
  Cell viability: 56%
[2]; 1 day after addition of 1.2 mM Na-butyrate, 34° C., 2 L bioreactor, average of four fermentations
  Cell viability: 87 ± 6%
[2]; 2 days after addition of 1.2 mM Na-butyrate, 34° C., 2 L bioreactor, average of four fermentations
  Cell viability: 81 ± 12%
[2]; 3 days after addition of 1.2 mM Na-butyrate, 34° C., 2 L bioreactor, average of four fermentations
  Cell viability: 78 ± 15%
[2]; 4 days after addition of 1.2 mM Na-butyrate, 34° C., 2 L bioreactor, average of four fermentations
  Cell viability: 72 ± 14%
[2]; 5 days after addition of 1.2 mM Na-butyrate, 34° C., 2 L bioreactor, average of four fermentations
  Cell viability: 67 ± 10%
[3]
  activity (tc-uPA): 3961 U/ml
[4]
  Cell viability: 63%
